Measured values: patent US10759777B2, “Carbazole-containing amides, carbamates, and ureas as cryptochrome modulators” (Synchronicity Pharma, Inc., priority 2014, dated 2020)

Assays:
[1] = target: isolated FAD-binding domain of human CRY1 protein (hCRY1) (Homo sapiens (Human), UniProt Q16526); assay: Thermal shift binding assay (differential scanning fluorimetry)
Procedure: Binding of compounds to the isolated FAD-binding domain of human CRY1 protein (hCRY1) was determined using a differential scanning fluorimetry (‘thermal shift’) assay (Pantoliano et al. (2001) J Biomol Screening 6, 429; Niesen et al. (2007) Nature Protocols 2, 2212). The FAD-binding domain of hCRY1 (amino acid residues 1-494) with a C-terminal Myc-DDK tag (FADBD), was produced by transient transfection of HEK293T cells (Catalog # CRL-3216, American Type Culture Collection) and purified by anti-FLAG affinity chromatography (Catalog # A2220, Sigma-Aldrich). FADBD (0.5 μg per well) was incubated with dilutions of compounds in DMSO (5% DMSO final concentration in reaction) in 17.5 μl Tris-buffered saline (TBS) for 10 minutes on ice, then 2.5 μl of 8× Sypro-Orange Dye (Life Technologies) was added to each well. Triplicate wells were assayed for each compound concentration. The melting temperatures were measured in an ABI7500 quantitative PCR instrument using the melt curve mode with a thermal profile of 2 minutes at 25° C., followed by a ramp rate of 1° C./minute up to 99° C. The melting temperature for each well was determined from the first derivative of the melt curve. The change in melting temperature (ΔTm) was obtained by subtraction of the melting temperature of the FADBD in 5% DMSO alone.

[2] = tested on: Dbp gene expression in whole blood; assay: Dbp mRNA in whole blood of db/db mice; type: in vivo, mouse; conditions: 100 mg/kg PO once daily for three days at ZT0, sampled ZT7.5
Procedure: For whole blood RNA studies, male db/db mice (9 weeks of age, The Jackson Laboratory, Bar Harbor, Me.) were used for the experiment with n=8 mice for each experimental group. […] On the final day at ZT7.5 (2:30 pm), animals were euthanized using CO2 asphyxiation, and the blood collected from the heart via cardiac puncture. The blood was placed in RNALater solution to 1.5 ml total volume. Total RNA was prepared using an Ambion Mouse RiboPure Blood RNA Isolation Kit AM1951 as follows. Samples were centrifuged for 3 minutes, discarding the supernatant. Two ml of lysis solution was added and vortexed, transferred to a 15 ml tube followed by the addition of […]. Lysis buffer was added to a total volume of 3.8 ml and vortexed. The sample mixture was extracted with 1.5 ml Acid Phenol: Chloroform and the aqueous phase was recovered. After adding 0.5 volumes of 100% ethanol and vortexing, the samples were passed through a filter column provided in the kit and washed with 750 microliters of wash buffer 1. The filter was washed with 2 passes of 750 microliters wash buffer 2/3 and dried. […]
For PCR analysis, the kit utilized was TaqMan® Fast Universal Master Mix (2×), No AmpErase® UNG. […] At least one housekeeping mRNA Expression Assay (e.g. GAPDH; Mm03302249_g1 or Hs02758991_g1) was included in each set of RNA samples to be assessed. […]

[3] = tested on: core clock gene mRNAs in liver; assay: Single dose at peak or nadir of Cry1 expression, liver core clock gene mRNAs; type: in vivo, mouse; conditions: single dose at ZT0 (peak) or ZT10 (nadir); liver 7.5 hours later
Procedure: For compounds that interact directly with the core clock mechanism, the time of dosing may be critical for maximizing their effects. […] The former (ZTO) is coincident with the peak of Cry1 and Bmal1 protein in mouse liver and the latter (ZT10) corresponds to the approximate nadir of Cry1 and Bmal1. Liver tissue was taken 7.5 hours later for each, and the samples were examined for core clock gene mRNAs by RT-qPCR.

[4] = tested on: db/db mouse model of type II diabetes; assay: Single dose at peak or nadir of clock gene expression, OGTT in db/db mice; type: in vivo
Description: Mice were split into two study arms, to be dosed at either the peak or nadir of Cry1 and Bmal1 gene expression. […] Mice dosed at ZT10 were fasted beginning at 8:30 am in the same manner.
Significance was accepted when p<0.05.

Chain of isolated FAD-binding domain of human CRY1 protein (hCRY1) (Q16526 1-494): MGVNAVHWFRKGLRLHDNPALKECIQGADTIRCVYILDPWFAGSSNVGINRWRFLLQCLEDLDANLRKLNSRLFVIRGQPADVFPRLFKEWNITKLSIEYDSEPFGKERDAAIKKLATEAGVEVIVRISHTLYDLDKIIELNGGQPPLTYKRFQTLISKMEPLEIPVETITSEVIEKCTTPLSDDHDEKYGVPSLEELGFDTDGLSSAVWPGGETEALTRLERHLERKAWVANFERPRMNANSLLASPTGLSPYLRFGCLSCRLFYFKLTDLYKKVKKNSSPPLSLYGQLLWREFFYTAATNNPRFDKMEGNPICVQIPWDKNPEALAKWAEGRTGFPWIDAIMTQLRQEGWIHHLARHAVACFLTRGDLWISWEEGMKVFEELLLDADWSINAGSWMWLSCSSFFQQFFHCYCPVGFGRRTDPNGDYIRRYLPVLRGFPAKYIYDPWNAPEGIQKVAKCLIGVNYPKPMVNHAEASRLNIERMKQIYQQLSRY

- change in melting temperature (ΔTm) of hCRY1 FADBD [1]: dose-dependent increase
SMILES: O=C1NCCN1CC(O)Cn1c2ccc(F)cc2c2cc(F)ccc21 (stereo not drawn) [Compound 72, 1-(3-(3,6-difluoro-9H-carbazol-9-yl)-2-hydroxypropyl)imidazolidin-2-one]
- Dbp gene expression in whole blood [2]: statistically significant suppression
- impact on core clock mRNAs, dosing at peak vs nadir of Cry1 [3]: greater relative impact on the clock mRNAs at the peak compared to the nadir
- effect on OGTT measurement, dosed at peak ([4]; 50 mg/kg PO single dose at ZT0, db/db mice): apparent effect
- effect on OGTT measurement, dosed at nadir ([4]; 50 mg/kg PO single dose at ZT10, db/db mice): no effect
- reduction in glucose excursion (AUC) ([4]; 50 mg/kg PO single dose at peak (ZT0), vs vehicle): 14%
